Results reported in article PMC9386376, “Discovery of spirooxindole-derived small-molecule compounds as novel HDAC/MDM2 dual inhibitors and investigation of their anticancer activity” (Frontiers in Oncology, 2022).

How the values were obtained:
[1] = molecular target: HDAC1 (Homo sapiens, UniProt Q13547); test: HTRF enzyme inhibition assay, HDAC1; conditions: for inhibition at 1 µM: read-out: % enzyme inhibition HDAC; for % enzyme inhibition HDAC: compound at 1 μM, HTRF, method names HDAC1 protein
[2] = molecular target: T1, GST-tagged MDM2 (Homo sapiens, UniProt Q00987); test: HTRF enzyme inhibition assay, MDM2; type: biochemical; conditions: compound at 1 μM
T1 construct: purchased Cisbio Co. Ltd
Procedure: The enzymatic assay of test compounds is using the HTRF-based method provided by Cisbio Co. Ltd. In brief, the target compounds to be tested were prepared into samples with a concentration of 1 μM, which was added to GST-tagged MDM2 and HDAC1 proteins, respectively, then biotinylated substrate p53 peptide and HTRF detection reagents were added. The data obtained were processed by the ratio method, and the inhibition rates of MDM2 and HDAC1 were calculated. The detailed experimental procedures are according to the manufacturer’s protocols.

[3] = test system: A431 cells; test: MTT antiproliferative assay, A431; conditions: read-out: IC50 A431; MTT, A431 human epidermal carcinoma, mean ± standard of at least three replicates
Procedure: (§1) The cytotoxicity assay was performed with MTT method as previously described ([73], [88], [89]).

[4] = test system: MCF-7 cells; test: MTT antiproliferative assay, MCF-7; conditions: read-out: IC50 MCF-7; MTT, MCF-7 human breast cancer, mean ± standard of at least three replicates
Procedure: as §1

[5] = test system: HCT116 cells; test: MTT antiproliferative assay, HCT116; conditions: read-out: IC50 HCT116; MTT, HCT116 human colorectal cancer, mean ± standard of at least three replicates
Procedure: as §1

T1 sequence (Q00987 whole entry): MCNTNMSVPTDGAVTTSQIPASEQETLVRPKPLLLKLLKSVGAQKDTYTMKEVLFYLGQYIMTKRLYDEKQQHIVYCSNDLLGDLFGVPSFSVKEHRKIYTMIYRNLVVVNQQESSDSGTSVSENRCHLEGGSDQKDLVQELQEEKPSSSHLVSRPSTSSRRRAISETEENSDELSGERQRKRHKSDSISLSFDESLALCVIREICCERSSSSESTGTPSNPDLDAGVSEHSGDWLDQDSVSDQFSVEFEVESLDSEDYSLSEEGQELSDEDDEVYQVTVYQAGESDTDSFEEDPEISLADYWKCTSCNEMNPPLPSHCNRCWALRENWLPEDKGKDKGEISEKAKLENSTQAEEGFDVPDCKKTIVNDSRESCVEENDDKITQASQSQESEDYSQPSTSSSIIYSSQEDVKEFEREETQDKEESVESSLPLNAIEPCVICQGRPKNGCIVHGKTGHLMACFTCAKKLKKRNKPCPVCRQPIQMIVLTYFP
Sequence of HDAC1 (Q13547 whole entry): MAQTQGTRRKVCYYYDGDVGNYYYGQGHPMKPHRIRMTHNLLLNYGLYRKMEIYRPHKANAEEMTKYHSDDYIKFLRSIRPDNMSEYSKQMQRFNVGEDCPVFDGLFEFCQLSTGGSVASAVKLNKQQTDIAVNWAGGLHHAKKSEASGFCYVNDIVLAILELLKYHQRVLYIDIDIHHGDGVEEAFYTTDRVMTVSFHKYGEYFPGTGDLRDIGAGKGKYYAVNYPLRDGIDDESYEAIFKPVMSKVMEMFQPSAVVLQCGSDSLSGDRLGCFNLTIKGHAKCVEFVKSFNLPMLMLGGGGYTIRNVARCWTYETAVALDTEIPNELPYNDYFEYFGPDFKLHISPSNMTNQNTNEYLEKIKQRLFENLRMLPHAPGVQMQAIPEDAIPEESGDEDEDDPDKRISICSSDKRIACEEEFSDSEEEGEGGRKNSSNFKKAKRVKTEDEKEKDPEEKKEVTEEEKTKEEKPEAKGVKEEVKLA

Nc1ccccc1NC(=O)CCCCCCC(=O)Nc1ccc([C@@H]2[C@H]3CSCN3[C@]3(C(=O)Nc4ccccc43)[C@H]2C(=O)c2ccccc2)cc1 [9b, N^1-(2-aminophenyl)-N^8-(4-((3R,6'S,7'R,7a'S)-6'-benzoyl-2-oxo-1',6',7',7a'-tetrahydro-3'H-spiro[indoline-3,5'-pyrrolo[1,2-c]thiazol]-7'-yl)phenyl)octanediamide]
inhibition at 1 µM [1]: 45% | inhibition at 1 µM [2]: 45% | melting point: 131.7 to 132.9 °C

Nc1ccccc1NC(=O)CCCCC(=O)Nc1ccc([C@@H]2[C@H]3CSCN3[C@]3(C(=O)Nc4cc(Cl)ccc43)[C@H]2C(=O)c2ccccc2)cc1 [9c, N^1-(2-aminophenyl)-N^6-(4-((3R,6'S,7'R,7a'S)-6'-benzoyl-6-chloro-2-oxo-1',6',7',7a'-tetrahydro-3'H-spiro[indoline-3,5'-pyrrolo[1,2-c]thiazol]-7'-yl)phenyl)adipamide]
inhibition at 1 µM [1]: 40% | inhibition at 1 µM [2]: 57% | melting point: 148.9 to 150 °C

Nc1ccccc1NC(=O)CCCCCCC(=O)Nc1ccc([C@@H]2[C@H]3CSCN3[C@]3(C(=O)Nc4cc(Cl)ccc43)[C@H]2C(=O)c2ccccc2)cc1 [9d, N^1-(2-aminophenyl)-N^8-(4-((3R,6'S,7'R,7a'S)-6'-benzoyl-6-chloro-2-oxo-1',6',7',7a'-tetrahydro-3'H-spiro[indoline-3,5'-pyrrolo[1,2-c]thiazol]-7'-yl)phenyl)octanediamide]
inhibition at 1 µM [1]: 55% | inhibition at 1 µM [2]: 56% | melting point: 145.2 to 146.4 °C

Nc1ccccc1NC(=O)CCCCCCCCC(=O)Nc1ccc([C@@H]2[C@H]3CSCN3[C@]3(C(=O)Nc4cc(Cl)ccc43)[C@H]2C(=O)c2ccccc2)cc1 [9e, N^1-(2-aminophenyl)-N^10-(4-((3R,6'S,7'R,7a'S)-6'-benzoyl-6-chloro-2-oxo-1',6',7',7a'-tetrahydro-3'H-spiro[indoline-3,5'-pyrrolo[1,2-c]thiazol]-7'-yl)phenyl)decanediamide]
inhibition at 1 µM [1]: 47% | inhibition at 1 µM [2]: 56% | melting point: 132.4 to 133.9 °C

CN1C[C@@H](c2ccc(NC(=O)CCCCCCC(=O)NO)cc2)[C@H](C(=O)c2ccccc2)[C@@]12C(=O)Nc1cc(Cl)ccc12 [13a, N^1-(4-((3R,3'S,4'R)-3'-benzoyl-6-chloro-1'-methyl-2-oxospiro[indoline-3,2'-pyrrolidin]-4'-yl)phenyl)-N^8-hydroxyoctanediamide]
inhibition at 1 µM [1]: 65% | inhibition at 1 µM [2]: 52% | melting point: 126.7 to 127.9 °C

O=C(CCCCCCC(=O)Nc1ccc([C@@H]2[C@H]3CSCN3[C@]3(C(=O)Nc4cc(Cl)ccc43)[C@H]2C(=O)c2ccccc2)cc1)NO [compound 7f, N^1-(4-((3R,6'S,7'R,7a'S)-6'-benzoyl-6-chloro-2-oxo-1',6',7',7a'-tetrahydro-3'H-spiro[indoline-3,5'-pyrrolo[1,2-c]thiazol]-7'-yl)phenyl)-N^8-hydroxyoctanediamide]
inhibition at 1 µM [1]: 64% | inhibition at 1 µM [2]: 65% | melting point: 150.2 to 151.2 °C

N^1-(4-((3R,6'S,7'R,7a'S)-6-chloro-6'-(3-methoxybenzoyl)-2-oxo-1',6',7',7a'-tetrahydro-3'H-spiro[indoline-3,5'-pyrrolo[1,2-c]thiazol]-7'-yl)phenyl)-N^6-hydroxyadipamide [7w]
IC50 [3]: 3.32 ± 0.68 µM | % enzyme inhibition HDAC [1]: 69% | % enzyme inhibition MDM2 [2]: 60% | IC50 [4]: 3.77 ± 0.93 µM | IC50 [5]: 3.91 ± 0.84 µM

N^1-(4-((3R,6'S,7'R,7a'S)-6-chloro-6'-(4-fluorobenzoyl)-2-oxo-1',6',7',7a'-tetrahydro-3'H-spiro[indoline-3,5'-pyrrolo[1,2-c]thiazol]-7'-yl)phenyl)-N^6-hydroxyadipamide [7x]
IC50 [3]: 3.43 ± 0.73 µM | % enzyme inhibition HDAC [1]: 73% | % enzyme inhibition MDM2 [2]: 62% | IC50 [4]: 2.9 ± 0.56 µM | IC50 [5]: 3.45 ± 0.57 µM
